Data on four compounds can be found in PMC4197335, “Cancer-Selective Targeting of the NF-κB Survival Pathway with GADD45β/MKK7 Inhibitors” (Cancer Cell, 2014).

Where two headings read alike, the source gives them in different places. Where a SMILES comes first, the peptide text is derived from it.

In one series the test system is KMS-12 MM cells. As to the kind of experiment: [3H]thymidine incorporation. The settings on record: Homo sapiens, single agent at 48 hr. The format is cell-based. The method, then: (§1) Additional details are provided in Supplemental Experimental Procedures.
Cell Proliferation, Cell Death, and Apoptosis Assays
W allac Trilux Microbeta 3 β -counter (Perk inElmer). Values were expressed as the percentage of the […]
respective untreated cultures. […]
splitting them as necessary during the assays. […]
previously (Riccardi and Nicoletti, 2006).
Cells were then f ixed in 70% ice- cold ethanol for 16 hr, washed in PBS, and treated with ribonuclease A (50 μg/mL) f or 30 min at room temperature. Samples were f inally stained with PI (50 µg/mL) in 0.1% sodium citrate buffer for 2 to 4 hr at 4°C in the dark , and data were acquired using a FACSCalibur automated system (Becton Dick inson) and analyzed with FlowJo.
The viability of primary CD138 + cells f rom patients was assessed using trypan blue exclusion assays (Mauro et al., 2011; Arnold et al., 2008), perf ormed as described above. Cells were seeded […]
Cell viability in the treated cultures was expressed as the percentage of cell survival relative to the survival observed in the respective untreated cultures, represented as 100%. […]
The activities of DTP3 and bortezomib in the U266 and KMS-12 myeloma cell lines, both as single agents and in combination, were determined using [3H]thymidine incorporation assays, performed as described above in “Cell Prolif eration, Cell Death, and Apoptosis Assays”. […]
On the technique in general: Dividing cells build labelled thymidine or BrdU into new DNA.

Series [1] concerns CD138+ cells from MM patients. As to the kind of experiment: cells. The settings on record: Homo sapiens, 48 h, read-out: IC50 (MM; PCs (n = 8)).
Source text: as §1
(§2) automated system (Becton Dick inson) and analyzed with FlowJo.

The subject of series [2] is CD138+ cells from WM patients. In words: cells. The conditions noted are these: Homo sapiens, 48 h, read-out: IC50 (WM; PCs (n= 2)).
Source text: as §1, §2

The test system of a further series is human BMSCs. In words: cells. The settings on record: Homo sapiens, BMSC, 48 h, read-out: IC50 (normal; BMSCs).
Source text: as §1, §2

A further series has as its system human PBMCs. In words: cells. The settings on record: Homo sapiens, PBMC, 48 h, read-out: IC50 (normal; PBMCs).
Source text: as §1, §2

Series [3] concerns human mesenchymal stem cells (MSCs). As to the kind of experiment: cells. The conditions noted are these: Homo sapiens, Mesenchymal stem cells, 48 h, read-out: IC50 (normal; MCSs).
Source text: as §1, §2

Series [4] deals with mouse lymph node (LN) cells. As to the kind of experiment: cells. The settings on record: Mus musculus, 48 h, read-out: IC50 (normal; lymph node cells).
Source text: as §1, §2

Another series has as its system mouse splenocytes. As to the kind of experiment: cells. The settings on record: Mus musculus, Splenocyte, 48 h, read-out: IC50 (normal; splenocytes).
Source text: as §1, §2

For series [5], the system named is U266 MM cells. In words: cells. The settings on record: Homo sapiens, U-266, 48 h.
For the next series, the target named is T1, GADD45β/MKK7 complex (Homo sapiens, UniProt O14733).
T1 construct: Full-length human (h)MKK7 was expressed as a protein fused to an N-terminal GST tag (GST-MKK7); made in house
T1 sequence (O14733 1-419): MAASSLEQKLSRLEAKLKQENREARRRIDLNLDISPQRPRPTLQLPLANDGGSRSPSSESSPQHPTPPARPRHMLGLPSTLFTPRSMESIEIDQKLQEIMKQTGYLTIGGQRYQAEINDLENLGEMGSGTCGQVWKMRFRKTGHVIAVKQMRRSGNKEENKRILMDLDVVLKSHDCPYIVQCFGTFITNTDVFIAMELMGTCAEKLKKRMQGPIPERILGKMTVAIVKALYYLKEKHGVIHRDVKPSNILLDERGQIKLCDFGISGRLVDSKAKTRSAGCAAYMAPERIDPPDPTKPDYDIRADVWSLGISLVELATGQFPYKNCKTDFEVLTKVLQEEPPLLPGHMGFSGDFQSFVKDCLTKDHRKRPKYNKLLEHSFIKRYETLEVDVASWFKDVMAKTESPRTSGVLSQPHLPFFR
As to the kind of experiment: ELISA GADD45β/MKK7 competition assay. Format: binding.
Source text: as §1
(1:1,000) and the HRP chromogenic substrate, o -phenylenediamine (OPD). GST -coated wells wer e […]
The ELISA competition screen used f or the isolation of antagonists of the GADD45β /MKK7 […]
The library deconvolution strategy used for this screen was described previously […]
General information about this type of screens can be found elsewhere […]
Values were expressed as the percentage of inhibition of His6-hGADD45β binding to GST-hMKK7 relative to the binding measured in the absence of […]
Dose-response, ELISA GADD45β /MKK7 competition assays were carried out under similar […]
As part of the SAR analysis and lead optimization process, where appropriate, competitors were tested at a concentration up to 100 nM. In order to determine their stability in biolog ical f luids , peptides were incubated at the concentration of 10 µM in […]
calculated using at least 7 concentrations of peptide and def ined as the mean concentration of peptide […]
the absence of competitor. W here indicated, values were expressed as the percentage of inhibition of His 6 -hGADD45β binding to GST-hMKK7 relative to the binding measured in the absence of competitor.
GST was used as a control in all the experiments. […]
tetrapeptide used as negative control in some of the ELISA and cellular assays was as f ollows: z -DNC, z-T yr -Asp-His-Gln-NH 2 . […]
(In general: An ELISA detects its analyte on a solid surface through an enzyme-linked reagent.)

Series [6] has as its system U266 MM cells. The conditions noted are these: read-out: IC50 (U266 cells); Table S3; day 6; [3H]thymidine incorporation or trypan blue exclusion.
The next series in a line: aqueous solubility. Format: physicochemical.

`CC(C)C[C@H](NC(=O)[C@H](Cc1ccccc1)NC(=O)c1cnccn1)B(O)O` [Bortezomib, reference compound]: the IC50 came to 6 nM with KMS-12 MM cells; 8.7 ± 2.1 nM in series [1]; 3.38 ± 2 nM in [2]; 80 nM with human BMSCs; 63.1 nM with human PBMCs; 79.4 nM in [3]. The IC50 was found to be 91.1 nM in [4], 80 nM with mouse splenocytes and 6 nM in the series with U266 MM cells [5].

The term inhibition denotes how much of the control response was suppressed. As for `NC(=O)CC[C@@H](NC(=O)[C@@H](Cc1c[nH]cn1)NC(=O)[C@@H](CC(=O)O)NC(=O)[C@@H](Cc1ccc(O)cc1)NC(=O)c1ccccc1)C(N)=O` [Benzoyl-YDHQ-NH2], the IC50 on GADD45β/MKK7 complex was > 10 nM; in the series on U266 MM cells [6] it was > 10000 nM. The inhibition at 0.01 µM on GADD45β/MKK7 complex (read-out: % inhibition (ELISA)) amounted to 1%; on GADD45β/MKK7 complex (read-out: % inhibition of (ELISA)), 0%.

Regarding `CC(=O)N[C@@H](Cc1c[nH]c2ccccc12)C(=O)N[C@@H](CC(=O)O)C(=O)N[C@@H](CCCNC(=N)N)C(=O)N[C@@H](Cc1c[nH]c2ccccc12)C(N)=O` [Ac-WDRW-NH2] (Ac-WDRW-NH2), on GADD45β/MKK7 complex (Table S2, peptide at 42 nM, read-out: % inhibition (ELISA)), the inhibition at 0.042 µM was 93%. Moreover, the IC50 on GADD45β/MKK7 complex (Table S4, read-out: IC50s (ELISA)) was < 42 nM. Also, the aqueous solubility result in the series “aqueous solubility” is “low”.

With `CCCCCCCCCCCCCC(=O)N[C@H](Cc1ccc(O)cc1)C(=O)N[C@H](CC(=O)O)C(=O)N[C@H](Cc1c[nH]cn1)C(=O)N[C@H](Cc1ccccc1)C(N)=O` [Myr-YDHF-NH2], the inhibition at 0.01 µM at GADD45β/MKK7 complex (Table S3, peptide at 10 nM, read-out: % inhibition (ELISA)) is 26%. For the same compound, the IC50 at GADD45β/MKK7 complex (Table S3, read-out: IC50 (ELISA)) was > 10 nM; in the series with U266 MM cells [6], > 10000 nM.
